Patent publication US20060194837A1, “Tetrahydroisoquinoline compounds” (priority 2004, published 2006)

What was measured:
human H3 receptor = molecular target: T1, human H3 receptor (Homo sapiens, UniProt Q9Y5N1); experiment: H3 receptor binding (N-[3H]-α-methylhistamine displacement); details: membranes of SK-N-MC cells expressing cloned human H3 receptor, 0.8 nM N-[3H]-α-methylhistamine, 60 min at 25° C.
T1 construct: expressed in transfected cells
Method: Briefly, cell pellets from SK-N-MC cells expressing the human H3 receptor were homogenized in 50 mM Tris-HCl/5 mM EDTA and re-centrifuged at 30,000 g for 30 min. Pellets were re-homogenized in 50 mM Tris/6 mM EDTA (pH 7.4). Membranes were incubated with 0.8 nM N-[^3H]-α-methylhistamine plus/minus test compounds for 60 min at 25° C. and harvested by rapid filtration over GF/C glass fiber filters (pretreated with 0.3% polyethylenimine) followed by four washes with ice-cold buffer. Nonspecific binding was defined in the presence of 10 μM histamine.

Rat SERT = molecular target: T2, Rat SERT (Rattus norvegicus, UniProt P31652); experiment: Rat brain SERT binding ([3H]-citalopram displacement); details: rat brain membranes without cerebellum, 0.6 nM [3H]-citalopram, 60 min at 25° C.; read-out: Rat SERT Ki
T2 construct: A rat brain without cerebellum (Zivic Laboratories, Inc.—Pittsburgh, Pa.) was homogenized; tissue Zivic Laboratories, Inc; host or cells: rat brain without cerebellum, membranes
T2 sequence (P31652 whole entry): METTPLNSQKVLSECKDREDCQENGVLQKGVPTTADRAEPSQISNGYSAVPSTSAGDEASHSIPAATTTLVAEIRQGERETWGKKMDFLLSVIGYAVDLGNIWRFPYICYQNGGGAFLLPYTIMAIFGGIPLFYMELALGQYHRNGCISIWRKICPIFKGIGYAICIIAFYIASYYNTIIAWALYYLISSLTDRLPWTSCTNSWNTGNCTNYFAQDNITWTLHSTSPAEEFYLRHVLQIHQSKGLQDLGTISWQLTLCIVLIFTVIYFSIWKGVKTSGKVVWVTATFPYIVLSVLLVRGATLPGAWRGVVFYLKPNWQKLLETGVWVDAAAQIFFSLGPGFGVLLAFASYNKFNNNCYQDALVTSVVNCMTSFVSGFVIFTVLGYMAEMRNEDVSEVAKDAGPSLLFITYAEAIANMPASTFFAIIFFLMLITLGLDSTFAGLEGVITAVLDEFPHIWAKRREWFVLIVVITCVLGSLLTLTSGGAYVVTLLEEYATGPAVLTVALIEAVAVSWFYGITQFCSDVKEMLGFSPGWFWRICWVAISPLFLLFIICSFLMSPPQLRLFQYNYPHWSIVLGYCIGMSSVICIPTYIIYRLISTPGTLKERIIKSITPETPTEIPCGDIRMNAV
Method: The supernatant was removed and re-centrifuged at 15,000 rpm for 30 min. […] Membranes were incubated with 0.6 nM [^3H]-Citalopram plus/minus test compounds for 60 min at 25° C. and harvested by rapid filtration over GF/C glass fiber filters (pretreated with 0.3% polyethylenimine) followed by four washes with ice-cold buffer.

T1 sequence (Q9Y5N1 whole entry): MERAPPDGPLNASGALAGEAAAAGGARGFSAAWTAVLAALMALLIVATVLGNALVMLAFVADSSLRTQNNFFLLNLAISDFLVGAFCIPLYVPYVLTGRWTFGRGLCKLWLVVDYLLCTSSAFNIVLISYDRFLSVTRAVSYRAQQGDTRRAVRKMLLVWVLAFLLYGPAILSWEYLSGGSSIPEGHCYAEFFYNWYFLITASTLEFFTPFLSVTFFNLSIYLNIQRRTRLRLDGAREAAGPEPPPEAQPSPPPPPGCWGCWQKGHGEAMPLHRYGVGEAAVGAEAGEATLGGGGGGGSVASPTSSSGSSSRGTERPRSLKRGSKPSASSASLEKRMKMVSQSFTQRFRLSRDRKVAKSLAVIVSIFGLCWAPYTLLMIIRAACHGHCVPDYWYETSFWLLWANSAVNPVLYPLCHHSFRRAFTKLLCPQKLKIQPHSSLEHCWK

Row | SMILES | Ki (human H3 receptor) [nM] | Ki (Rat SERT) [nM]
1 | CCCN1CCC(COc2ccc3c(c2)CN(C)CC3c2ccc(OC)c(Cl)c2)CC1 (centres unmarked) [Example 108, 4-(3-Chloro-4-methoxy-phenyl)-2-methyl-7-(1-propyl-piperidin-4-ylmethoxy)-1,2,3,4-tetrahydro-isoquinoline] | 12 | 13
2 | COc1ccc(C2CN(C)Cc3cc(OCC4CCN(C5CCC5)CC4)ccc32)c(F)c1 (centres unmarked) [Example 113, 7-(1-Cyclobutyl-piperidin-4-ylmethoxy)-4-(2-fluoro-4-methoxy-phenyl)-2-methyl-1,2,3,4-tetrahydro-isoquinoline] | 8 | 10
3 | COc1ccc(C2CN(C)Cc3cc(OCC4CCN(CC(C)C)CC4)ccc32)c(F)c1 (centres unmarked) [Example 115, 4-(2-Fluoro-4-methoxy-phenyl)-7-(1-isobutyl-piperidin-4-ylmethoxy)-2-methyl-1,2,3,4-tetrahydro-isoquinoline] | 10 | 8
4 | COc1ccc(C2CN(C)Cc3cc(OCC4CCN(C(=O)C(F)(F)F)CC4)ccc32)cc1 (centres unmarked) [Example 122, 2,2,2-Trifluoro-1-{4-[4-(4-methoxy-phenyl)-2-methyl-1,2,3,4-tetrahydro-isoquinolin-7-yloxymethyl]-piperidin-1-yl}-ethanone] | 372 | 26
5 | COc1ccc(C2CN(C)Cc3cc(OCC4CCN(CC(F)(F)F)CC4)ccc32)cc1 (centres unmarked) [Example 123, 4-(4-Methoxy-phenyl)-2-methyl-7-[1-(2,2,2-trifluoro-ethyl)-piperidin-4-ylmethoxy]-1,2,3,4-tetrahydroisoquinoline] | 346 | 18
6 | CN1Cc2cc(OCCCN3CCC(F)CC3)ccc2C(c2ccccc2F)C1 (centres unmarked) [Example 125, 4-(2-Fluoro-phenyl)-7-[3-(4-fluoro-piperidin-1-yl)-propoxy]-2-methyl-1,2,3,4-tetrahydro-isoquinoline] | 2 | 45
7 | COc1ccc(C2CN(Cc3ccccc3)Cc3cc(OCCCN4CCC(F)CC4)ccc32)cc1 (centres unmarked) [Example 127, 2-Benzyl-7-[3-(4-fluoro-piperidin-1-yl)-propoxy]-4-(4-methoxy-phenyl)-1,2,3,4-tetrahydro-isoquinoline] | 39 | 5000
8 | CN1Cc2cc(OCCCN3CCC(F)CC3)ccc2C(c2cccc(OC(F)(F)F)c2)C1 (centres unmarked) [Example 128, 7-[3-(4-Fluoro-piperidin-1-yl)-propoxy]-2-methyl-4-(3-trifluoromethoxy-phenyl)-1,2,3,4-tetrahydro-isoquinoline] | 12 | 40
9 | COc1ccc(C2CN(C)Cc3cc(OCCCNC(C4CC4)C4CC4)ccc32)cc1 (centres unmarked) [Example 131, Dicyclopropylmethyl-{3-[4-(4-methoxy-phenyl)-2-methyl-1,2,3,4-tetrahydro-isoquinolin-7-yloxy]-propyl}-amine] | 85 | 9
10 | COc1ccc(C2CN(C)Cc3cc(OCCCN4CC(C(c5ccccc5)c5ccccc5)C4)ccc32)cc1 (centres unmarked) [Example 137, 7-[3-(3-Benzhydryl-azetidin-1-yl)-propoxy]-4-(4-methoxy-phenyl)-2-methyl-1,2,3,4-tetrahydro-isoquinoline] | 5000 | 77
11 | CSc1ccc(C2CN(C)Cc3cc(OC4CCNCC4)ccc32)cc1 (centres unmarked) [Example 149, 2-Methyl-4-(4-methylsulfanyl-phenyl)-7-(piperidin-4-yloxy)-1,2,3,4-tetrahydro-isoquinoline] | 240 | 4
12 | COc1ccc(C2CN(C)Cc3cc(OC4CCNCC4)ccc32)c(F)c1 (centres unmarked) [Example 150, 4-(2-Fluoro-4-methoxy-phenyl)-2-methyl-7-(piperidin-4-yloxy)-1,2,3,4-tetrahydro-isoquinoline] | 175 | 7
13 | COc1ccc(C2CN(C)Cc3cc(OC4CCNCC4)ccc32)cc1F (centres unmarked) [Example 151, 4-(3-Fluoro-4-methoxy-phenyl)-2-methyl-7-(piperidin-4-yloxy)-1,2,3,4-tetrahydro-isoquinoline] | 119 | 3
14 | CSc1ccc(C2CN(C)Cc3c2ccc(OCCCN2CCOCC2)c3C)cc1 (centres unmarked) [Example 172, 2,8-Dimethyl-4-(4-methylsulfanyl-phenyl)-7-(3-morpholin-4-yl-propoxy)-1,2,3,4-tetrahydro-isoquinoline] | 89 | 14
15 | CSc1ccc(C2CN(C)Cc3cc(OCCCN4CCOCC4)c(C)cc32)cc1 (centres unmarked) [Example 173, 2,6-Dimethyl-4-(4-methylsulfanyl-phenyl)-7-(3-morpholin-4-yl-propoxy)-1,2,3,4-tetrahydro-isoquinoline] | 15 | 18
16 | CSc1ccc(C2CN(C)Cc3cc(OCC4CCN(CCF)CC4)ccc32)cc1 (centres unmarked) [Example 178, 7-[1-(2-Fluoro-ethyl)-piperidin-4-ylmethoxy]-2-methyl-4-(4-methylsulfanyl-phenyl)-1,2,3,4-tetrahydro-isoquinoline] | 18 | 6
17 | COc1ccc(C2CN(C)Cc3cc(OCCCN4CC(F)(F)C4)ccc32)cc1 (centres unmarked) [Example 182, 7-[3-(3,3-Difluoro-azetidin-1-yl)-propoxy]-4-(4-methoxy-phenyl)-2-methyl-1,2,3,4-tetrahydro-isoquinoline] | 59 | 2

The remaining molecules from weak to strong by Ki (human H3 receptor), led by results:

Row | Ki (human H3 receptor) [nM] | Ki (Rat SERT) [nM] | SMILES
18 | 8 | 4 | COc1ccc(C2CN(C)Cc3cc(OCC4CCN(C5CCC5)CC4)ccc32)cc1F (centres unmarked) [Example 111, 7-(1-Cyclobutyl-piperidin-4-ylmethoxy)-4-(3-fluoro-4-methoxy-phenyl)-2-methyl-1,2,3,4-tetrahydro-isoquinoline]
19 | 6 | 25 | COc1ccc(C2CN(C)Cc3cc(OCC4CCN(C5CCC5)CC4)ccc32)cc1Cl (centres unmarked) [Example 106, 4-(3-Chloro-4-methoxy-phenyl)-7-(1-cyclobutyl-piperidin-4-ylmethoxy)-2-methyl-1,2,3,4-tetrahydro-isoquinoline]
20 | 6 | 10 | CN1Cc2cc(OCCCN3CCC(F)CC3)ccc2C(c2ccc(Br)nc2)C1 (centres unmarked) [Example 186, 4-(6-Bromo-pyridin-3-yl)-7-[3-(4-fluoro-piperidin-1-yl)-propoxy]-2-methyl-1,2,3,4-tetrahydro-isoquinoline]
21 | 5 | 6 | CCN1CCC(COc2ccc3c(c2)CN(C)CC3c2ccc(SC)cc2)CC1 (centres unmarked) [Example 105, 7-(1-Ethyl-piperidin-4-ylmethoxy)-2-methyl-4-(4-methylsulfanyl-phenyl)-1,2,3,4-tetrahydro-isoquinoline]
22 | 5 | 10 | CCN1CCC(COc2ccc3c(c2)CN(C)CC3c2ccc(OC)c(Cl)c2)CC1 (centres unmarked) [Example 107, 4-(3-Chloro-4-methoxy-phenyl)-7-(1-ethyl-piperidin-4-ylmethoxy)-2-methyl-1,2,3,4-tetrahydro-isoquinoline]
23 | 4 | 9 | CCCN1CCC(COc2ccc3c(c2)CN(C)CC3c2ccc(OC)cc2F)CC1 (centres unmarked) [Example 114, 4-(2-Fluoro-4-methoxy-phenyl)-2-methyl-7-(1-propyl-piperidin-4-ylmethoxy)-1,2,3,4-tetrahydro-isoquinoline]
24 | 4 | 19 | CN1Cc2cc(OCCCN3CCC(F)CC3)ccc2C(c2ccccc2Cl)C1 (centres unmarked) [Example 132, 4-(2-Chloro-phenyl)-7-[3-(4-fluoro-piperidin-1-yl)-propoxy]-2-methyl-1,2,3,4-tetrahydro-isoquinoline]
25 | 2 | 10 | CCN1CCC(Oc2ccc3c(c2)CN(C)CC3c2cccc(OC)c2)CC1 (centres unmarked) [Example 100, 7-(1-Ethyl-piperidin-4-yloxy)-4-(3-methoxy-phenyl)-2-methyl-1,2,3,4-tetrahydro-isoquinoline]
26 | 2 | 18 | COc1cccc(C2CN(C)Cc3cc(OC4CCN(C5CCCC5)CC4)ccc32)c1 (centres unmarked) [Example 101, 7-(1-Cyclopentyl-piperidin-4-yloxy)-4-(3-methoxy-phenyl)-2-methyl-1,2,3,4-tetrahydro-isoquinoline]
27 | 2 | 13 | CCCN1CCC(Oc2ccc3c(c2)CN(C)CC3c2cccc(OC)c2)CC1 (centres unmarked) [Example 102, 4-(3-Methoxy-phenyl)-2-methyl-7-(1-propyl-piperidin-4-yloxy)-1,2,3,4-tetrahydro-isoquinoline]
28 | 2 | 50 | C[C@H]1COCCN1CCCOc1ccc2c(c1)CN(C)CC2c1ccc(N2CCOCC2)cc1 (stereo partly drawn) [Example 133, 2-Methyl-7-[3-(3S-methyl-morpholin-4-yl)-propoxy]-4-(4-morpholin-4-yl-phenyl)-1,2,3,4-tetrahydro-isoquinoline]
29 | 2 | 1 | COc1ccc(C2CN(C)Cc3cc(OCCCN4CCOC(CO)C4)ccc32)cc1 (centres unmarked) [Example 184, (4-{3-[4-(4-Methoxy-phenyl)-2-methyl-1,2,3,4-tetrahydro-isoquinolin-7-yloxy]-propyl}-morpholin-2-yl)-methanol]
30 | 1 | 9 | COc1ccc(C2CN(C)Cc3cc(OC4CCN(C(C)C)CC4)ccc32)c(F)c1 (centres unmarked) [Example 119, 4-(2-Fluoro-4-methoxy-phenyl)-7-(1-isopropyl-piperidin-4-yloxy)-2-methyl-1,2,3,4-tetrahydro-isoquinoline]
31 | 1 | 10 | COc1ccc(C2CN(C)Cc3cc(OC4CCN(C(C)C)CC4)ccc32)cc1F (centres unmarked) [Example 120, 4-(3-Fluoro-4-methoxy-phenyl)-7-(1-isopropyl-piperidin-4-yloxy)-2-methyl-1,2,3,4-tetrahydro-isoquinoline]
